Reference: patent US20050090496A1, “Sulphonyl compounds with 5-ht6 receptor affinity” (priority 2002, published 2005)
Counter-ions that a name gives are not always drawn.

Molecular target: T1, human cloned 5-HT6 receptors (Homo sapiens, UniProt P50406)
T1 construct: expressed in transfected cells
Test: affinity for the 5-HT6 receptor (procedures of WO98/27081)
Assay type: binding
Excerpt: Compounds can be tested following the procedures outlined in WO98/27081.

T1 sequence (P50406 whole entry): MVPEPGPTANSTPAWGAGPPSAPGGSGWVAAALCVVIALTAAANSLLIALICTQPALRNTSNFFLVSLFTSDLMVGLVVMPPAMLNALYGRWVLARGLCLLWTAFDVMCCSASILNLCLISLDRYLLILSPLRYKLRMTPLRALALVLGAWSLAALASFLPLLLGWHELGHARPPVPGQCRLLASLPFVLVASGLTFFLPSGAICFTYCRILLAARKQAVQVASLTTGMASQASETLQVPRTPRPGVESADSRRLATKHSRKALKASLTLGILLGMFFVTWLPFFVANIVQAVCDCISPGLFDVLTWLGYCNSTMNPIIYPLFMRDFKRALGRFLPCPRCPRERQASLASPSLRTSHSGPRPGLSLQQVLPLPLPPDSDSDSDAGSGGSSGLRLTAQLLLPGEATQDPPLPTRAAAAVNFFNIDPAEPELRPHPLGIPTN

Q: For O=S(=O)(c1cccc(Cl)c1)n1ccc2c(N3CCNCC3)ccnc21 [Example E1, 4[1-(3-Chlorobenzenesulfonyl)-1-pyrrolo[2,3-b]pyridin-4-yl]-piperazine hydrochloride], which Ki is on record?
A: Its Ki is < 10 nM.
